Results from ChEMBL document CHEMBL5465560, “Selectivity Literature for EUbOPEN Chemogenomic Library” (2024).

How the values were obtained:
[1] = target: Glutamate receptor ionotropic, NMDA 1 (Homo sapiens) (UniProt Q05586); assay: Selectivity interaction (Panel of kinases, GPCRs, ion channels and transporters (enzymatic assay)) EUB0000266bCl GRIN1
[2] = target: Mitogen-activated protein kinase kinase kinase kinase 1 (Homo sapiens) (UniProt Q92918); assay: Selectivity interaction (ActivX KiNativ screen (kinase selectivity in THP-1 cell lysates)) EUB0000639a MAP4K1; assay type: subcellular; details: lysate
[3] = target: Serine/threonine-protein kinase 32A (Homo sapiens) (UniProt Q8WU08); assay: Selectivity interaction (KinomeScan (DiscoverX)) EUB0000695a STK32A; details: at 100 nM
[4] = tested on: Receptor-type tyrosine-protein kinase FLT3 (Homo sapiens), P36888 [UNDEFINED MUTATION]; assay: Selectivity interaction (KinomeScan (DiscoverX)) EUB0000695a FLT3; details: at 100 nM
[5] = target: STE20/SPS1-related proline-alanine-rich protein kinase (Homo sapiens) (UniProt Q9UEW8); assay: Selectivity interaction (KinomeScan (DiscoverX)) EUB0000595a STK39; details: at 10 µM
[6] = target: T1, Serine/threonine-protein kinase 3 (Homo sapiens) (UniProt Q13188); assay: Selectivity interaction (KinomeScan (DiscoverX)) EUB0000595a STK3; details: at 10 µM
T1 sequence (whole entry): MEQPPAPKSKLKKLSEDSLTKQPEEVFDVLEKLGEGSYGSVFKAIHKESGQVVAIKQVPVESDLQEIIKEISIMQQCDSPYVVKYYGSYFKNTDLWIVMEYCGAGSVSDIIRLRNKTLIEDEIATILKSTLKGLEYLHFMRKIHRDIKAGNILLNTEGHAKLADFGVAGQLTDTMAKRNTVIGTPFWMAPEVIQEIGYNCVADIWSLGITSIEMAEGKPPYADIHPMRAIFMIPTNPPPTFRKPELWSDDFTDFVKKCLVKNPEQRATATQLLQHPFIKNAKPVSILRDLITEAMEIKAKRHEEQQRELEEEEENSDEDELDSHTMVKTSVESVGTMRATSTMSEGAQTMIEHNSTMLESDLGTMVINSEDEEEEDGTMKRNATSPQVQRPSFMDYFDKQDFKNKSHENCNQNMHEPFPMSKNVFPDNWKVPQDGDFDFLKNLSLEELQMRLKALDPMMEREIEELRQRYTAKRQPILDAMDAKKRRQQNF

[7] = target: LIM domain kinase 1 (Homo sapiens) (UniProt P53667); assay: Selectivity interaction (KinomeScan (DiscoverX)) EUB0001049a LIMK1; details: at 1 µM
[8] = target: Mitogen-activated protein kinase kinase kinase 20 (Homo sapiens) (UniProt Q9NYL2); assay: Selectivity interaction (KinomeScan (DiscoverX)) EUB0001049a MAP3K20; details: at 1 µM
[9] = target: Serine/threonine-protein kinase N2 (Homo sapiens, UniProt Q16513); assay: Selectivity interaction (KinomeScan (DiscoverX)) EUB0001049a PKN2; details: at 1 µM
[10] = target: T2, Dual specificity mitogen-activated protein kinase kinase 6 (Homo sapiens) (UniProt P52564); assay: Selectivity interaction (Ambit KINOMEscan and KiNATiv profiling in Jurkat cells) EUB0000090b MAP2K6; assay type: cell-based; details: at 1 µM
T2 sequence (whole entry): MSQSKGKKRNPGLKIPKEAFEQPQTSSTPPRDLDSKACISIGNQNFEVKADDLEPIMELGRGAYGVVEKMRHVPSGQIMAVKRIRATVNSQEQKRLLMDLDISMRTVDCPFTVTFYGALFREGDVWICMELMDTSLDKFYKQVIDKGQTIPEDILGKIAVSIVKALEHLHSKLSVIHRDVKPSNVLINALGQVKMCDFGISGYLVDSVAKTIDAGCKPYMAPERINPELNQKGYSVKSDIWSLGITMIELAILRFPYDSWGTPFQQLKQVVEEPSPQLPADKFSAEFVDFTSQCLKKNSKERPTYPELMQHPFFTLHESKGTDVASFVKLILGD

[11] = target: Tyrosine-protein kinase Yes (Homo sapiens) (UniProt P07947); assay: Selectivity interaction (Ambit KINOMEscan and KiNATiv profiling in Jurkat cells) EUB0000090b YES1; assay type: cell-based; details: at 1 µM
[12] = target: Rho-associated protein kinase 1 (Homo sapiens) (UniProt Q13464); assay: Selectivity interaction (KinomeScan (DiscoverX)) EUB0000655a ROCK1; details: at 10 µM
[13] = target: Platelet-derived growth factor receptor alpha (Homo sapiens, UniProt P16234); assay: Selectivity interaction (Kinase panel (Enzyme activity assay)) EUB0000612a PDGFRA
[14] = target: Cyclin-dependent kinase 17 (Homo sapiens) (UniProt Q00537); assay: Selectivity interaction (KinomeScan (DiscoverX)) EUB0000045b CDK17
[15] = target: Cyclin-dependent kinase-like 1 (Homo sapiens) (UniProt Q00532); assay: Selectivity interaction (KinomeScan (DiscoverX)) EUB0000045b CDKL1
[16] = target: Phosphatidylinositol 4-phosphate 5-kinase type-1 alpha (Homo sapiens) (UniProt Q99755); assay: Selectivity interaction (KinomeScan (DiscoverX)) EUB0001079a PIP5K1A; details: at 1 µM
[17] = target: T3, Serine/threonine-protein kinase Sgk3 (Homo sapiens) (UniProt Q96BR1); details: at 10 µM
T3 sequence (whole entry): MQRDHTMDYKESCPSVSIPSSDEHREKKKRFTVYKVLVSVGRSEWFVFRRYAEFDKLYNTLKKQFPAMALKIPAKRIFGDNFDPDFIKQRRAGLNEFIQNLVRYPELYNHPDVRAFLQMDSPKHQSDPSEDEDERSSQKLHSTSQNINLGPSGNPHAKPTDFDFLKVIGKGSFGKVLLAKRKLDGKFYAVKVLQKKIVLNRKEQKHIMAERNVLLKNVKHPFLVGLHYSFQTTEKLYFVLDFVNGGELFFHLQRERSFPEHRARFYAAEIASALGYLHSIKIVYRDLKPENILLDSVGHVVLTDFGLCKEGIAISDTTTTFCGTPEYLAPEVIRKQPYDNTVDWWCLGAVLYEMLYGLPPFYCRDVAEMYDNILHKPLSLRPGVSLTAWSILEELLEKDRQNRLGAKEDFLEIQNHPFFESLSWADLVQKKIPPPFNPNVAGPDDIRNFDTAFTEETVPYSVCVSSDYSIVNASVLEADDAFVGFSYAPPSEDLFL

[18] = target: Ribosomal protein S6 kinase alpha-5 (Homo sapiens) (UniProt O75582); assay: Selectivity interaction (KinomeScan (DiscoverX)) EUB0000618a RPS6KA5; details: at 10 µM
[19] = target: BDNF/NT-3 growth factors receptor (Homo sapiens) (UniProt Q16620); assay: Selectivity interaction (KinomeScan (DiscoverX)) EUB0001619a NTRK2; details: at 1 µM

Chain of Mitogen-activated protein kinase kinase kinase kinase 1 (Homo sapiens) (Q92918 whole entry, looked up): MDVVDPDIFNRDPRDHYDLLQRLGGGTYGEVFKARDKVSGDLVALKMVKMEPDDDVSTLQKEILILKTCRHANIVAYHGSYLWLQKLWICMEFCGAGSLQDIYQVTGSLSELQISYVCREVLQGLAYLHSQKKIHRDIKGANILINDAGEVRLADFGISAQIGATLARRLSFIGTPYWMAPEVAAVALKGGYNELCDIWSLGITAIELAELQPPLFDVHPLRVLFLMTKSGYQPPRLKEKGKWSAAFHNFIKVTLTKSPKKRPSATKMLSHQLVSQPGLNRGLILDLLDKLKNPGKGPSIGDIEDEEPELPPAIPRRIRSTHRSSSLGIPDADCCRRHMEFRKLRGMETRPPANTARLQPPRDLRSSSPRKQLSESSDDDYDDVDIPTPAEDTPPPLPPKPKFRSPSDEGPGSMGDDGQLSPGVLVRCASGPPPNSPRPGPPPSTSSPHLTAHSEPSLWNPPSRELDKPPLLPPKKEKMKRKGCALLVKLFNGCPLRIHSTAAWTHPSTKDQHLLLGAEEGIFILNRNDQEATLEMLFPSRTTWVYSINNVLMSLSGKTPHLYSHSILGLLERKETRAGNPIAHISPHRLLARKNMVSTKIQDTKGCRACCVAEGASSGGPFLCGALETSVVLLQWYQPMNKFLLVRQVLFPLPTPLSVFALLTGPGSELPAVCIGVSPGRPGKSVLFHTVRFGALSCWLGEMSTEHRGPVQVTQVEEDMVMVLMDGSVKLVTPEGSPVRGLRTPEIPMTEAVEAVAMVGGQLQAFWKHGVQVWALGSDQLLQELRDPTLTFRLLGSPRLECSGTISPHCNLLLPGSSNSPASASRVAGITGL
Chain of Cyclin-dependent kinase 17 (Homo sapiens) (Q00537 whole entry, looked up): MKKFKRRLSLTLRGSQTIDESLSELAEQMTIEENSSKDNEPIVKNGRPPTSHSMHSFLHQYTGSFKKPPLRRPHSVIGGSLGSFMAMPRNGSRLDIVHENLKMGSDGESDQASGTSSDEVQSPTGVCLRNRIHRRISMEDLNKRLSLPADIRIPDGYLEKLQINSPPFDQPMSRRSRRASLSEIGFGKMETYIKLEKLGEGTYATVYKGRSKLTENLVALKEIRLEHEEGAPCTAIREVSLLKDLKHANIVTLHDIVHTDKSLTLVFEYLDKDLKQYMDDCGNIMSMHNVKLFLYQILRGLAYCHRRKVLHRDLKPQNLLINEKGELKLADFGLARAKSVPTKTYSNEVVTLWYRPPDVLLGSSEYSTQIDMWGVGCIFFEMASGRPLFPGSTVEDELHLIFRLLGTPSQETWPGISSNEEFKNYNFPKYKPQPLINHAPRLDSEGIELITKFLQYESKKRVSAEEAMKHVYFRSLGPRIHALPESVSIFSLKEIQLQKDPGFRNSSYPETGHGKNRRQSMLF
Chain of Cyclin-dependent kinase-like 1 (Homo sapiens) (Q00532 whole entry): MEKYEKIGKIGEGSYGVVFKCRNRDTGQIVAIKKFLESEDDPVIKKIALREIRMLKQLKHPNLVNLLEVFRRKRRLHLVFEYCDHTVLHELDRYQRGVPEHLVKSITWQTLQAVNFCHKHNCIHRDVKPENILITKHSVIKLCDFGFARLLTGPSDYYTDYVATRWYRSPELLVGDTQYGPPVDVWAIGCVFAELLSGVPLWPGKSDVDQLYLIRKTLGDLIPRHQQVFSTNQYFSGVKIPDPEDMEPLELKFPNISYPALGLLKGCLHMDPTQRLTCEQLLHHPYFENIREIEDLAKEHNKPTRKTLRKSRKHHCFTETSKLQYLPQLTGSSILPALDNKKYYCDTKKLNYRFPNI
Chain of Platelet-derived growth factor receptor alpha (P16234 whole entry): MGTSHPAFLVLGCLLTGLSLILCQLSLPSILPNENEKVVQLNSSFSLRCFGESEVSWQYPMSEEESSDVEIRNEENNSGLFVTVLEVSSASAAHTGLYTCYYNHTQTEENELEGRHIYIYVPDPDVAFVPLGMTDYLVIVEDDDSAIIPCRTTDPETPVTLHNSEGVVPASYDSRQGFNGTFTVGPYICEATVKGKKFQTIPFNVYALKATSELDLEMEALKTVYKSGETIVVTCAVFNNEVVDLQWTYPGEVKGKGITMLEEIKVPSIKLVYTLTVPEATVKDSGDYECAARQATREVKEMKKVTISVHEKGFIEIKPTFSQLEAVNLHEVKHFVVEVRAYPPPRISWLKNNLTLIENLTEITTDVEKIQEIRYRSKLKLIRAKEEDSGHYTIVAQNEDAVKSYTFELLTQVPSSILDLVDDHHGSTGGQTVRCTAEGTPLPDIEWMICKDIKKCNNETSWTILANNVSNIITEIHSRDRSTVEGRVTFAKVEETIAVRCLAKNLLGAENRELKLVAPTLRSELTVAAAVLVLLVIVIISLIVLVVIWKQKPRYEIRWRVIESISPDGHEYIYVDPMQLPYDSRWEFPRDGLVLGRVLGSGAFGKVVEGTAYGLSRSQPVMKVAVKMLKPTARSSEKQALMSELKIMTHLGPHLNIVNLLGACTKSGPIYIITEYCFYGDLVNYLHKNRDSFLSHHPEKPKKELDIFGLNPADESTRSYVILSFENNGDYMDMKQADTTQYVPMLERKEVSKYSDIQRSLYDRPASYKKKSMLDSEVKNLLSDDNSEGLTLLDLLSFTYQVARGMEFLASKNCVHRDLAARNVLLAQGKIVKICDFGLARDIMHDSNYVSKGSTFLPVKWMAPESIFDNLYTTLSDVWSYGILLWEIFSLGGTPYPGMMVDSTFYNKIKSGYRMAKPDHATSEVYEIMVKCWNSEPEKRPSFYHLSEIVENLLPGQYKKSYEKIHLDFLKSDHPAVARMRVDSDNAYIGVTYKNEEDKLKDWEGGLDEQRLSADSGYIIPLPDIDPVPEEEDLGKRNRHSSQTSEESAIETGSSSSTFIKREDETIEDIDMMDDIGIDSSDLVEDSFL
Chain of Ribosomal protein S6 kinase alpha-5 (Homo sapiens) (O75582 whole entry, looked up): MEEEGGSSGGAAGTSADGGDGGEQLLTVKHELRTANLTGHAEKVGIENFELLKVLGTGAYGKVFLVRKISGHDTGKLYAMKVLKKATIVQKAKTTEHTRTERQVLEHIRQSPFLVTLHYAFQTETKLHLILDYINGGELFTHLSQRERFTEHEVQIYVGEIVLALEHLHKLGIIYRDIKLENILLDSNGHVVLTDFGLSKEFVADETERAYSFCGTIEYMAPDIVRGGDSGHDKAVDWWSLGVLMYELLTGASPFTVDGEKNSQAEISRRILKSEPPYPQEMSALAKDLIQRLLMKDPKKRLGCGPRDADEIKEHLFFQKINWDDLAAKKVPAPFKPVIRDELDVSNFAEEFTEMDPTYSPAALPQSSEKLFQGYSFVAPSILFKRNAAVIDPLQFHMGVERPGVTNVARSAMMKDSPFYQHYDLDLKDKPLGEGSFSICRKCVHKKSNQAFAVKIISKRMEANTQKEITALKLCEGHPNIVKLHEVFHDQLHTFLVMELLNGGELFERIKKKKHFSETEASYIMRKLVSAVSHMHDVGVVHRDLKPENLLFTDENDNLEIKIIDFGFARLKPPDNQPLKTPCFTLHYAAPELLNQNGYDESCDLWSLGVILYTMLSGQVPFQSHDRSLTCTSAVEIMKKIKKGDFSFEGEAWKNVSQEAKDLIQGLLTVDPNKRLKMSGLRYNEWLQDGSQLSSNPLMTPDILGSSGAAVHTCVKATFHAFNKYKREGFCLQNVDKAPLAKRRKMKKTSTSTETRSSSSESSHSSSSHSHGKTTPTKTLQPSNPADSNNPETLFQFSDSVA
Chain of Rho-associated protein kinase 1 (Homo sapiens) (Q13464 2-1354 limits assumed): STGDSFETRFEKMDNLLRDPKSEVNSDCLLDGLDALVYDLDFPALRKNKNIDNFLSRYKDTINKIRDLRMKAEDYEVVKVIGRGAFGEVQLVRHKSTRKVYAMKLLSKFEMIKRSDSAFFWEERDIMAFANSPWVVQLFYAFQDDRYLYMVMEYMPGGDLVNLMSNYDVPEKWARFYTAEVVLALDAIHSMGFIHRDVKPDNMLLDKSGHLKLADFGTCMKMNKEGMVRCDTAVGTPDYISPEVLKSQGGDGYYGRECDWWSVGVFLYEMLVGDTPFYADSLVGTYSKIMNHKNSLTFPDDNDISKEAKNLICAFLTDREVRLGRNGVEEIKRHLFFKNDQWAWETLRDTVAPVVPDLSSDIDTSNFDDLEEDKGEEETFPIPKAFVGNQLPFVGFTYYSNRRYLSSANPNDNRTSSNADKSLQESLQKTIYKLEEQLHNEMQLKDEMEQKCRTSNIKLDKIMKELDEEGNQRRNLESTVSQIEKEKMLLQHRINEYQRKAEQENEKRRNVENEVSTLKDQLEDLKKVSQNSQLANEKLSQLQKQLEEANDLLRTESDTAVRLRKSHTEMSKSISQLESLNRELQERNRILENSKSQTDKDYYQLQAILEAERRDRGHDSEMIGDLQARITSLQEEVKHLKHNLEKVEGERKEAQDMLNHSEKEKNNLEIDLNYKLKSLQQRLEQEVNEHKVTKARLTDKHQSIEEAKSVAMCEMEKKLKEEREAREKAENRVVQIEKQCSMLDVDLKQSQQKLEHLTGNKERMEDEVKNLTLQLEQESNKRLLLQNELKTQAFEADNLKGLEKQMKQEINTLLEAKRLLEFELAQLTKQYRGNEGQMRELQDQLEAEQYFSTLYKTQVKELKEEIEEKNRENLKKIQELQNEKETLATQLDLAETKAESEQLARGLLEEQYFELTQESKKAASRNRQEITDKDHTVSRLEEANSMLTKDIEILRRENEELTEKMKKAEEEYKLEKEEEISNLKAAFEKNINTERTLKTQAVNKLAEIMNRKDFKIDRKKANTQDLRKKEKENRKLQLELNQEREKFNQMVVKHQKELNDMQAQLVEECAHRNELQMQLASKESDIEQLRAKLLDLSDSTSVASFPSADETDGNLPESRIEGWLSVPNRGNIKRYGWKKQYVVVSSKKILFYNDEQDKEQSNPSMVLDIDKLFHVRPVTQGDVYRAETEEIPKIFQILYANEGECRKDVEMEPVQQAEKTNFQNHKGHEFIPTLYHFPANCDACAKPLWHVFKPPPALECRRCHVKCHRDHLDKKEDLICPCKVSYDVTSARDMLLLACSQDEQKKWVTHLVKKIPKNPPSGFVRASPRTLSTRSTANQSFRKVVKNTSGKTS

CCn1c(-c2nc3cc(C(=O)N4CCCC(N)C4)ccc3n2C)cc2ccccc21 (stereo not given)
pXC50 [1]: < 4.3 M

CC[C@@H]1[C@H](F)C(=O)N[C@@H]1COc1nccc2cc(C(N)=O)c(OC)cc12 [ZIMLOVISERTIB]
% of inhibition ([2]; at 0.01 µM): 9.7% | % of inhibition ([2]; at 0.04 µM): -10.3% | % of inhibition ([2]; at 0.2 µM): -26.5% | % of inhibition ([2]; at 1 µM): -6.5% | % of inhibition ([2]; at 5 µM): -18.1%

Cc1cc(F)c(C(=O)Nc2cccc(-c3nncn3C(C)C)n2)cc1-n1cnc(C2CC2)c1
% of control [3]: 100% | % of control [4]: 100%

COCC(=O)NC/C=C/c1ccc2ncnc(Nc3ccc(Oc4ccc(C)nc4)c(C)c3)c2c1 [CP-724714]
% of control [5]: 100% | % of control [6]: 82%

COc1cc(Nc2nc(C)cc(-c3cnn4nc(OC)ccc34)n2)cc(C(F)(F)F)c1
% of control [7]: 75% | % of control [8]: 77% | % of control [9]: 90%

CN(C)C/C=C/C(=O)Nc1ccc(C(=O)N2CCCC(Nc3ncc(Cl)c(-c4c[nH]c5ccccc45)n3)C2)cc1 (stereo not given)
% of control [10]: 78% | % of control [11]: 94%

CN(C)CCOc1ccc(-c2nc(-c3ccncc3)c(-c3ccc4c(c3)CC/C4=N\O)[nH]2)cc1
% of control [12]: 77%

CCc1cccc(CC)c1NC(=O)c1nn(C)c2c1CCc1cnc(Nc3ccc(C(=O)NC4CCN(C)CC4)cc3OC(F)(F)F)nc1-2
IC50 [13]: > 10 µM

C=CC(=O)Nc1cc(-n2c(=O)ccc3cnc4ccc(-c5ccc(NS(C)(=O)=O)cc5)cc4c32)ccc1C
% of control ([14]; at 1 µM): 100% | % of control ([14]; at 10 µM): 95% | % of control ([15]; at 1 µM): 100% | % of control ([15]; at 10 µM): 58%

Nc1cnc(N2CCc3cc(S(=O)(=O)Nc4c(F)cc(Cl)cc4F)cc(N4CCCC4=O)c32)nc1 [TP-020n]
% of control [16]: 100%

Cc1cc([C@@H](C)Nc2ccccc2C(=O)O)c2nc(N3CCOCC3)cc(=O)n2c1 [AZD-6482]
% of control [17]: 86%

O[C@H]1CC[C@H](Nc2ncc3nc(Nc4c(F)cc(F)cc4F)n([C@H]4CCOC4)c3n2)CC1
% of control [18]: 68%

N#Cc1cccc(-c2c[nH]c3ncnc(N4CCOCC4)c23)c1
% of control [19]: 63%
